Assay results published in patent US11970474B2, “Substituted benzodiazoles and use thereof in therapy” (THOMAS HELLEDAYS STIFTELSE FÖR MEDICINSK FORSKNING, priority 2018, dated 2024).
Where two headings read alike, the source gives them in different places.

Assays:
CCL2 = experiment: Mouse CCL2 assay in MLE12 cells; type: cell-based; conditions: MLE12 cells, TNF-α 20 ng/ml, supernatant after 30 hours, HTRF, read-out: CCL2 (EC50)
Summary of the method: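 MLE12 mouse lung epithelial cells (7500/well, DMEM/F12 with 5% FBS) preincubated 1 h with compounds (6-point dose-response, duplicate), then stimulated with TNF-α (final 20 ng/ml) for 30 h at 37 °C. Secreted CCL2 measured by HTRF sandwich immunoassay (Ex330/Em620, 665 nm) against standard curve; IC50 from delta ratios.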

MLE12 cells = experiment: Cell viability assay in MLE12 cells (resazurin); type: cell-based, mouse; conditions: TNF-α 20 ng/ml, resazurin added after 24 hours culture
Summary of the method: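 MLE12 cells (7500 cells/well) were seeded onto 11-point duplicate compound dose-responses, with TNF-α (final 20 ng/ml) added after 1 hour at 37° C. After 24 hours, resazurin was added for 6 hours and resorufin fluorescence read (ex544 nm/em595 nm). EC50 values were calculated by curve fitting.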

OGG1 = OGG1 (Homo sapiens (Human), UniProt O15527); experiment: In vitro OGG1 activity assay; type: biochemical; conditions: 800 pM OGG1 enzyme, 2 nM human APEX1, 10 nM 8-oxoA:C substrate
Sequence of OGG1 (O15527 whole entry): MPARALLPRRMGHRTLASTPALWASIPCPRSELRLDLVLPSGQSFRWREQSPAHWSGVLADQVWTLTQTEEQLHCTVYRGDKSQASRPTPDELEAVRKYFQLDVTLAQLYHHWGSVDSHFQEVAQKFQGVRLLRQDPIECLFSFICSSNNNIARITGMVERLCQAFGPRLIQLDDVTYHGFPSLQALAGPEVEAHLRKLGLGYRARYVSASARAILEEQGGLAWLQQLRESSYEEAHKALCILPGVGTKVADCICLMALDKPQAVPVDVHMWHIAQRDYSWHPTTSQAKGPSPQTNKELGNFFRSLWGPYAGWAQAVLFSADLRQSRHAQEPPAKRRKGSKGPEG
Summary of the method: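 Fluorescence-release assay on a duplex oligonucleotide carrying an OGG1 substrate base beside a fluorophore, quenched from the complementary strand. Excess APEX1 cleaves the abasic site left by base excision, melting the duplex and unquenching the fluorophore. Compounds in DMSO were dispensed before enzyme and substrate, and fluorescein signal was read.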

Row | SMILES | EC50 (CCL2; Mus musculus, MLE12, 30 h) [µM] | IC50 (MLE12 cells; Mus musculus, MLE12, 24 h) [µM] | IC50 (OGG1) [µM] | EC50 (CCL2) [µM] | IC50 (MLE12 cells) [µM]
1 | Nc1ccc(-c2cccc3c2[nH]c(=O)n3C2CCN(C(=O)Nc3ccc(Cl)c(Cl)c3)CC2)cn1 [Example 39, 4-[4-(6-Aminopyridin-3-yl)-2-oxo-2,3-dihydro-1H-1,3-benzodiazol-1-yl]-N-(3,4-dichlorophenyl)piperidine-1-carboxamide] | 15.1 | 6.5 | 0.788 |  | 
2 | Cc1cc(NC(=O)[C@H]2CC[C@@H](n3c(=O)[nH]c4c(Br)cccc43)CC2)ccc1F [Example 142, (Cis)-4-(4-bromo-2-oxo-2,3-dihydro-1H-1,3-benzodiazol-1-yl)-N-(4-fluoro-3-methylphenyl)cyclohexane-1-carboxamide] | 15.8 | 7.96 | 0.497 |  | 
3 | O=c1[nH]c2c(Br)cccc2n1[C@H]1CC[C@@H](C(=O)Nc2ccc(Cl)c(Cl)c2)CC1 [Example 118, (Cis)-4-(4-bromo-2-oxo-2,3-dihydro-1H-1,3-benzodiazol-1-yl)-N-(3,4-dichlorophenyl)cyclohexane-1-carboxamide] | 16.7 | 5.39 | 0.234 |  | 
4 | Cc1ccc(NC(=O)[C@H]2CC[C@@H](n3c(=O)[nH]c4c(Br)cccc43)CC2)cc1 [Example 139, (Cis)-4-(4-bromo-2-oxo-2,3-dihydro-1H-1,3-benzodiazol-1-yl)-N-(4-methylphenyl)cyclohexane-1-carboxamide] | 31.8 | 10.1 | 0.058 |  | 
5 | COc1cc(NC(=O)N2C3CCC2CC(n2c(=O)[nH]c4c(-c5ccc(CO)nc5)cccc42)C3)ccc1Cl (stereo not drawn) [Example 93, N-(4-chloro-3-methoxyphenyl)-3-{4-[6-(hydroxymethyl)pyridin-3-yl]-2-oxo-2,3-dihydro-1H-1,3-benzodiazol-1-yl}-(endo)-8-azabicyclo[3.2.1]octane-8-carboxamide] | 34.9 | 21.3 | 0.091 |  | 
6 | COc1ccc(NC(=O)[C@H]2CC[C@@H](n3c(=O)[nH]c4c(Br)cccc43)CC2)cc1C [Example 126, (Cis)-4-(4-bromo-2-oxo-2,3-dihydro-1H-1,3-benzodiazol-1-yl)-N-(4-methoxy-3-methylphenyl)cyclohexane-1-carboxamide] | 26.5 | 15.7 | 0.012 |  | 
7 | COc1cc(NC(=O)[C@H]2CC[C@@H](n3c(=O)[nH]c4c(N(C)CCN(C)C)cccc43)CC2)ccc1C [Example 229, Cis-4-(4-{[2-(dimethylamino)ethyl](methyl)amino}-2-oxo-2,3-dihydro-1H-1,3-benzodiazol-1-yl)-N-(3-methoxy-4-methylphenyl)cyclohexane-1-carboxamide] | 12.2 | 9.19 | 0.0298 | 6.93 | 6.67
8 | O=c1[nH]c2c(Br)cccc2n1[C@H]1CC[C@@H](C(=O)Nc2ccc3cc[nH]c3c2)CC1 [Example 135, (Cis)-4-(4-bromo-2-oxo-2,3-dihydro-1H-1,3-benzodiazol-1-yl)-N-(1H-indol-6-yl)cyclohexane-1-carboxamide] | 23.3 | 9 | 0.094 |  | 
9 | COc1cc(NC(=O)[C@H]2CC[C@@H](n3c(=O)[nH]c4c(OCCN(C)C)cccc43)CC2)ccc1C [Example 304, Cis-4-{4-[2-(dimethylamino)ethoxy]-2-oxo-2,3-dihydro-1H-1,3-benzodiazol-1-yl}-N-(3-methoxy-4-methylphenyl)cyclohexane-1-carboxamide] | 10.6 | 8.27 | 0.0038 |  | 
10 | O=c1[nH]c2c(Br)cccc2n1[C@H]1CC[C@@H](C(=O)Nc2ccc3ncccc3c2)CC1 [Example 204, Cis-4-(4-bromo-2-oxo-2,3-dihydro-1H-1,3-benzodiazol-1-yl)-N-(quinolin-6-yl)cyclohexane-1-carboxamide] | 12.9 | 7.93 | 0.0656 |  | 
11 | COc1cc(NC(=O)N2CCC(n3c(=O)[nH]c4c(Br)cccc43)CC2)ccc1Cl [Example 77, 4-(4-Bromo-2-oxo-2,3-dihydro-1H-1,3-benzodiazol-1-yl)-N-(4-chloro-3-methoxyphenyl)piperidine-1-carboxamide] | 21.2 | 7.4 | 0.358 |  | 
12 | COc1cc(NC(=O)[C@H]2CC[C@@H](n3c(=O)[nH]c4c(Br)cccc43)CC2)ccc1C [Example 107, (Cis)-4-(4-bromo-2-oxo-2,3-dihydro-1H-1,3-benzodiazol-1-yl)-N-(3-methoxy-4-methylphenyl)cyclohexane-1-carboxamide] | 15.6 | 7.41 | 0.023 | 16.7 | 7.4
13 | COc1cc(NC(=O)[C@H]2CC[C@@H](n3c(=O)[nH]c4c(C(=O)N(C)C5CCN(C)C5)cccc43)CC2)ccc1C (stereo partly drawn) [Example 277, N-Methyl-N-(1-methylpyrrolidin-3-yl)-2-oxo-1-[cis-4-[(3-methoxy-4-methylphenyl)carbamoyl]cyclohexyl]-2,3-dihydro-1H-1,3-benzodiazole-4-carboxamide] | 28.6 | 15 | 0.0482 |  | 
14 | CNc1cccc2c1[nH]c(=O)n2[C@H]1CC[C@@H](C(=O)Nc2ccc(C)c(OC)c2)CC1 [Example 244, Cis-N-(3-methoxy-4-methylphenyl)-4-[4-(methylamino)-2-oxo-2,3-dihydro-1H-1,3-benzodiazol-1-yl]cyclohexane-1-carboxamide] | 37.3 | 13.7 | 0.0607 |  | 
15 | COc1c(F)cc(NC(=O)[C@H]2CC[C@@H](n3c(=O)[nH]c4c(Br)cccc43)CC2)cc1F [Example 160, (Cis)-4-(4-bromo-2-oxo-2,3-dihydro-1H-1,3-benzodiazol-1-yl)-N-(3,5-difluoro-4-methoxyphenyl)cyclohexane-1-carboxamide] | 25.6 | 8.18 | 0.081 |  | 
16 | COc1cc(NC(=O)[C@H]2CC[C@@H](n3c(=O)[nH]c4c(NC(=O)c5cc(C)on5)cccc43)CC2)ccc1C [Example 300, 5-Methyl-N-{2-oxo-1-[cis-4-[(3-methoxy-4-methylphenyl)carbamoyl]cyclohexyl]-2,3-dihydro-1H-1,3-benzodiazol-4-yl}-1,2-oxazole-3-carboxamide] | 2.11 | 1.58 | 0.0099 |  | 
17 | COc1ccc(CSc2cccc3c2[nH]c(=O)n3[C@H]2CC[C@@H](C(=O)Nc3ccc(C)c(OC)c3)CC2)cc1 [Example 230, Cis-N-(3-methoxy-4-methylphenyl)-4-(4-{[(4-methoxyphenyl)methyl]sulfanyl}-2-oxo-2,3-dihydro-1H-1,3-benzodiazol-1-yl)cyclohexane-1-carboxamide] | 5.84 | 2.58 | 0.606 |  | 
18 | COc1ccc(NC(=O)[C@H]2CC[C@@H](n3c(=O)[nH]c4c(OC)cccc43)CC2)cc1C [Example 206, Cis-4-(4-methoxy-2-oxo-2,3-dihydro-1H-1,3-benzodiazol-1-yl)-N-(4-methoxy-3-methylphenyl)cyclohexane-1-carboxamide] | 33.7 | 26.7 | 0.0154 |  | 
19 | COc1cc(NC(=O)[C@H]2CC[C@@H](n3c(=O)[nH]c4c(N(C)Cc5ccccc5)cccc43)CC2)ccc1C [Example 243, Cis-4-{4-[benzyl(methyl)amino]-2-oxo-2,3-dihydro-1H-1,3-benzodiazol-1-yl}-N-(3-methoxy-4-methylphenyl)cyclohexane-1-carboxamide] | 14.7 | 5.74 | 1.47 |  | 
20 | COc1cc(NC(=O)[C@H]2CC[C@@H](n3c(=O)[nH]c4c(C(=O)N5CCN(C)CC5)cccc43)CC2)ccc1C [Example 268, Cis-N-(3-methoxy-4-methylphenyl)-4-[4-(4-methylpiperazine-1-carbonyl)-2-oxo-2,3-dihydro-1H-1,3-benzodiazol-1-yl]cyclohexane-1-carboxamide] | > 100 | 13.4 | 0.153 |  | 
21 | O=c1[nH]c2c(Br)cccc2n1[C@H]1CC[C@@H](C(=O)Nc2ccc(Cl)cc2Cl)CC1 [Example 131, (Cis)-4-(4-bromo-2-oxo-2,3-dihydro-1H-1,3-benzodiazol-1-yl)-N-(2,4-dichlorophenyl)cyclohexane-1-carboxamide] | 39.2 | 17.4 | 0.676 |  | 
22 | COc1ccc(NC(=O)[C@H]2CC[C@@H](n3c(=O)[nH]c4c(Br)cccc43)CC2)cn1 [Example 183, Cis-4-(4-bromo-2-oxo-2,3-dihydro-1H-1,3-benzodiazol-1-yl)-N-(6-methoxypyridin-3-yl)cyclohexane-1-carboxamide] | 36.2 | 17 | 0.174 |  | 
23 | COc1cc(NC(=O)[C@H]2CC[C@@H](n3c(=O)[nH]c4c(C(=O)N5CCNC(C(F)(F)F)C5)cccc43)CC2)ccc1C (stereo partly drawn) [Example 274, Cis-N-(3-methoxy-4-methylphenyl)-4-{2-oxo-4-[3-(trifluoromethyl)piperazine-1-carbonyl]-2,3-dihydro-1H-1,3-benzodiazol-1-yl}cyclohexane-1-carboxamide] | 39 | 18.1 | 0.0921 |  | 
